Results as given in PubChem BioAssay AID2305 (GlaxoSmithKline (GSK), 2010).

What follows are compounds tested on P. falciparum 3D7 growth, pLDH absorbance (assay: P. falciparum 3D7 growth inhibition, dose response, strain 3D7 (AID 2305)).
In the case of `COc1ccc(-c2nc3c(NCc4ccccc4)nccc3[nH]2)c(OC)c1`, the IC50 is reported as 0.78 µM.
For `CN(C)C(CNC(=O)c1cc(-c2ccncc2)c(-c2ccc(NC(=O)Nc3ccccc3)cc2)o1)c1ccccc1` (stereo not given), the IC50 was 0.6 µM.
`CCCc1ccc(S(=O)(=O)NC2CCN(c3ccnc(Nc4ccc(OC)cc4)n3)C2)cc1` (stereo not given) was tested, and the IC50 was 1.19 µM.
With `Cc1ccccc1C1CCN(C2CCC(NC(=O)c3ccc(-c4cc(C(F)(F)F)nn4C)s3)CC2)CC1` (stereo not given) the IC50 was 0.85 µM.
`CCOC(=O)N1CCN(CCCCNc2c3ccc(Cl)cc3nc3ccc(OC)cc23)CC1` gave an IC50 of 0.12 µM.
`Nc1nc(N)c2cc(C#Cc3ccc(-c4ccccc4)cc3)ccc2n1` showed an IC50 of 0.81 µM.
Work on `COc1ccc(C(=O)[C@H]2C[C@@H]2CN2CC=C(c3c[nH]c4ccccc34)CC2)cc1` yielded an IC50 of 0.53 µM.
For `Cc1ccc(O)cc1Nc1ccnc2cc(-c3ccncc3)ccc12`, the IC50 was 0.72 µM.
For `CN(C)CCNc1ncnc2c1[nH]c1ccc(Br)cc12`, the IC50 was 0.74 µM.
`O=C(Nc1ccc(-c2cccc(-c3nc4ccc(F)cc4[nH]3)c2)cc1)Nc1ccsc1` was tested, and the IC50 was 0.69 µM.
`CO/C(=C/C=C/c1cc2cc(Cl)c(Cl)cc2[nH]1)C(=O)NC1CC(C)(C)N(C)C(C)(C)C1` was tested, and the IC50 was 0.78 µM.
For `O=C(NC1CCN(c2ncc(C(F)(F)F)cc2Cl)CC1)c1cccs1`, the IC50 was 0.9 µM.
With `Clc1ccc(Cl)c2[nH]c(CNCCCNc3nc4ccccc4[nH]3)cc12` the IC50 was 0.16 µM.
For `CC(C)c1ccc(C(NC(=O)C2CCCCC2)c2ccc3cccnc3c2O)cc1` (stereo not given), the IC50 was 0.6 µM.
Compound `COc1cccc(-c2csc(C(=O)NCC3CCN(Cc4ccc(C(C)C)cc4)C3)c2)c1` (stereo not given) has an IC50 of 1.39 µM.
`COc1ccc(-c2cccc(NC(=O)c3ccc(C#N)cc3)c2)cc1CN1CCCC1` showed an IC50 of 0.7 µM.
Compound `Cc1ccc(-c2nc3ccc(C(=O)NC4CCN(Cc5ccccc5)CC4)cc3[nH]2)cc1` has an IC50 of 0.74 µM.
Compound `O=C(Cc1cnc[nH]1)Nc1ccc(-c2cccc(-c3nc4ccc(F)cc4[nH]3)c2)cc1` has an IC50 of 0.8 µM.
Work on `CCCCOc1c(CCNCCCCNCCc2cc(OC)c3ccccc3c2OCCCC)cc(OC)c2ccccc12` yielded an IC50 of 0.92 µM.
`CCOc1ccc(C(=O)Nc2cc(Br)c3c(c2)CNCC3)cc1C(F)(F)F` gave an IC50 of 0.94 µM.
In the case of `Oc1ccc(CCNc2nc(N/N=C/C=C/c3ccc(Cl)cc3)nc(N3CCNCC3)n2)cc1`, the IC50 is reported as 0.78 µM.
In the case of `O=C(/C=C/c1ccccc1Cl)Nc1ccc(Br)c(OCCN2CCN(CCN3CCCC3)CC2)c1`, the IC50 is reported as 0.65 µM.
`O=S(=O)(Nc1cc2c(cc1OCc1ccccc1)CCN(C1CCC1)CC2)c1ccc(-c2ccc(Cl)cc2)cc1` was tested, and the IC50 was 1.14 µM.
Compound `Cc1ccc(CNc2ccc3ncc(-c4cccc(C(=O)NCCN(C)C)c4)n3n2)c(C)c1` has an IC50 of 0.59 µM.
For `N#Cc1ccc2[nH]cc(CN3CCC4(CC3)CN(CCNCc3ccccc3)C(=O)O4)c2c1`, the IC50 was 1.16 µM.
`COc1ccc(CN(C)Cc2ccc(NC(=O)c3cccc4c(=O)c5cccc(C)c5[nH]c34)cc2)cc1OC` showed an IC50 of 0.84 µM.
For `COc1cc(F)c2ncc(Cl)c(CCN3CCC(NCc4ccc5c(c4)OCCO5)CC3)c2c1`, the IC50 was 0.47 µM.
Compound `CCc1cc2c3c(N)nc(N)nc3ccc2n1CC` has an IC50 of 0.01 µM.
In the case of `Cc1cc(Cc2ccc(S(=O)(=O)c3cc4c(cc3O)CCN(C)CC4)cc2)ccc1Cl`, the IC50 is reported as 0.91 µM.
Work on `COc1ccc2nc(C)cc(NCc3ccc4ccccc4c3)c2c1` yielded an IC50 of 0.47 µM.
In the case of `CC(C)c1ccc(CN2CCC(CNC(=O)c3cc(-c4ccccc4F)cs3)C2)cc1` (stereo not given), the IC50 is reported as 0.99 µM.
`COc1ccccc1N1CCN(C(C(=O)NCc2ccc3c(c2)OCO3)c2ccc(C)cc2)CC1` (stereo not given) was tested, and the IC50 was 0.98 µM.
`CCNc1cc(C(=O)N[C@@H](Cc2ccccc2)[C@H](O)CNC2(CCC(C)C)CC2)cc(N2CCCCS2(=O)=O)c1` showed an IC50 of 1.08 µM.
Work on `COc1ccc(-c2cnc(N)c(-c3ccc(C(N)=O)cc3)c2)cc1OC` yielded an IC50 of 0.9 µM.
For `CCCCOC(=O)C1=C(C)NC2=C(C(=O)CCC2)C1c1ccc(OC)c(Br)c1` (stereo not given), the IC50 was 0.6 µM.
With `CCCC(=O)Nc1ccc(OCCCCN(CC(C)(C)C)c2ccc(C#N)c(C(F)(F)F)c2)cc1` the IC50 was 1.35 µM.
`O=C(Nc1cccc(CN2CCN(Cc3ccc(O)cc3)CC2)c1)c1cc2ccccc2s1` showed an IC50 of 0.68 µM.
Compound `O=c1cc(NCCCNCc2cc(C(F)(F)F)ccc2F)[nH]c2ccccc12` has an IC50 of 0.83 µM.
Work on `CN(C)c1cc(NC(=O)Nc2ccccc2)c2ccccc2n1` yielded an IC50 of 0.41 µM.
Work on `O=C(Nc1cccc(-c2ccc(-c3nc4ccccc4[nH]3)cc2)c1)Nc1ccc(F)c(F)c1F` yielded an IC50 of 0.24 µM.
`O=C(Cc1ccc(NC(=O)c2ccc(O)c(-c3ccc(Cl)c(Cl)c3)c2)cc1)NCCN1CCOCC1` showed an IC50 of 0.81 µM.
Compound `Clc1ccc(CCNCCCCCCNCCc2ccc3c(c2)OCO3)cc1` has an IC50 of 1.73 µM.
In the case of `COc1ccc2c(c1)CC1CN(CCCCNC(=O)c3ccc(NC(=O)c4cc(Cl)cc(Cl)c4)cc3)CCN1C2` (stereo not given), the IC50 is reported as 0.77 µM.
In the case of `N#Cc1ccc(Sc2nnc(-c3ccccc3Cl)n2CC2CCCCC2)cc1[N+](=O)[O-]`, the IC50 is reported as 1.16 µM.
For `COc1ccc(-c2ccccc2OCCCNc2nc(NCCc3ccc(O)cc3)nc(N3CCNCC3)n2)cc1`, the IC50 was 0.79 µM.
`COCCOC(=O)C(=O)c1c(-c2ccccc2)c(-c2ccc(OC)c(OC)c2)c2c3cc(OC)c(OC)cc3ccn12` was tested, and the IC50 was 0.5 µM.
Work on `CC(=O)Nc1nc(C(=O)Nc2ccc(-c3cccc(-c4nc5ccccc5[nH]4)c3)cc2)cs1` yielded an IC50 of 0.55 µM.
With `Nc1nc(N)c2c(ccc3nn(Cc4ccccc4)cc32)n1` the IC50 was 0.21 µM.
`CCOc1ccc(N(CC)S(=O)(=O)c2cc(Br)cc3c2N(C(=O)C2CC2)CC3)cc1` was tested, and the IC50 was 0.13 µM.
Work on `COc1ccc(CC(=O)NC(CCCN2CCC(c3ccccc3)CC2)c2ccc(Cl)c(Cl)c2)cc1OC` (stereo not given) yielded an IC50 of 1.05 µM.
`CCOC(=O)c1c(CNc2ccncc2)n(C)c2cc(Br)c(OC(C)=O)cc12` gave an IC50 of 0.37 µM.
For `CCCC(=O)Nc1ccc(OCCN(Cc2ccccc2OC(F)(F)F)c2ccc(C(F)(F)F)c(C#N)c2)cc1`, the IC50 was 0.79 µM.
Compound `Cc1ccc(Sc2ccc(NC(=O)CN3CCN(C(=O)c4ccco4)CC3)cc2)cc1C` has an IC50 of 0.91 µM.
`NCCCOc1cnc(-c2ccccc2)c2nc(-c3nonc3N)n(CCc3ccccc3)c12` showed an IC50 of 1.27 µM.
`COc1ccc2nccc([C@@H](O)CN3CCC(NC(=O)c4ccc(CN5CCN(c6cccc(C)c6)CC5C)cc4)CC3)c2c1` (stereo not given in full) gave an IC50 of 0.21 µM.
`CCCC(=O)Nc1ccc(OCCCN(Cc2cccc(C(F)(F)F)c2)c2ccc(C#N)c(C(F)(F)F)c2)cc1` showed an IC50 of 1.09 µM.
`COc1c(F)ccc2ncc(Cl)c(CCN3CCC(NCc4ccc5c(n4)NC(=O)CS5)CC3)c12` gave an IC50 of 0.54 µM.
In the case of `O=C1Nc2cccc3c2C1(CCCCCN1CC=C(c2c[nH]c4ccccc24)CC1)CCC3` (stereo not given), the IC50 is reported as 0.74 µM.
With `COc1cccc(-c2ccc3c(-c4cccc(S(C)(=O)=O)c4)cnc(N)c3c2)c1` the IC50 was 0.87 µM.
`CC(C)N1CCN(c2ccc(OCCCCN3CCN(c4cccc(Cl)c4Cl)CC3)cc2Cl)CC1` gave an IC50 of 1.04 µM.
`Clc1cc(Nc2ncnc3sc(C#C[C@H]4CCCN4)cc23)ccc1OCc1cccnc1Cl` showed an IC50 of 0.57 µM.
Work on `COc1cccc(-c2ccc3c(-c4cccc(NC(C)=O)c4)cnc(N)c3c2)c1` yielded an IC50 of 0.11 µM.
Compound `Nc1nc(N)c2cc(Cc3ccc([N+](=O)[O-])cc3)cnc2n1` has an IC50 of 0.94 µM.
`Cc1cccc(NC(=O)NCc2ccccc2)n1` showed an IC50 of 0.94 µM.
For `CCc1nc(N)nc(N)c1-c1ccc(C(C)C)cc1`, the IC50 was 0.83 µM.
`COC(=O)c1ccc(CC(C)NCC(O)c2ccc(Cl)c(Cl)c2)cc1` (stereo not given) gave an IC50 of 1 µM.
Compound `COc1ccccc1-n1c(-c2ccc3ccccc3c2)csc1=NC(=O)c1ccccc1` has an IC50 of 0.2 µM.
`CCCCCCCCNCC(O)c1ccc(Cl)c(Cl)c1` (stereo not given) was tested, and the IC50 was 0.82 µM.
Compound `Cc1ccc(-c2nnc(-c3ccc(C(=O)NC4CCN(Cc5ccc(C#N)cc5)CC4)cc3)o2)cc1Br` has an IC50 of 0.85 µM.
`Cc1cc(OCC2CCCN(c3ncc(C(=O)NC4CC4)cc3Cl)C2)ccc1F` (stereo not given) showed an IC50 of 1.49 µM.
Work on `COc1ccc(-c2cnc(N)c(-c3ccc(O)c(OC)c3)c2)cn1` yielded an IC50 of 0.88 µM.
`Cc1cccc2[nH]c(-c3ccc(-c4ccc(NC(=O)C(C)CN(C)C)cc4)cc3)nc12` (stereo not given) was tested, and the IC50 was 0.68 µM.
For `CN(C)S(=O)(=O)n1ncc2c3c(N)nc(N)nc3ccc21`, the IC50 was 0.18 µM.
Work on `O=C(Nc1ccc(-c2ccccc2)cc1)Nc1cccc(Cn2nc(Cl)c(N3CCCNCC3)cc2=O)c1` yielded an IC50 of 0.68 µM.
Work on `Cc1ccc2c(NN=Cc3cccc(Cl)c3)cc(C)nc2c1` yielded an IC50 of 0.95 µM.
Compound `CC(=O)Nc1nc(-c2ccccc2)[nH]c1C(N)=O` has an IC50 of 0.25 µM.
For `Oc1cccc2c1CC(NCc1ccccc1)CC2` (stereo not given), the IC50 was 0.89 µM.
In the case of `CN(Cc1ccc(NC(=O)NC2CCN(C(=O)/C=C/c3ccc(Cl)c(Cl)c3)CC2)cc1)C1CCOCC1`, the IC50 is reported as 0.88 µM.
With `CC(=O)Nc1ccc(C(=O)Nc2cccc(-c3cccc(-c4nc5ccc(F)cc5[nH]4)c3)c2)cn1` the IC50 was 0.13 µM.
`N#Cc1ccc(C=NNc2nc3ccccc3[nH]2)cc1` gave an IC50 of 1 µM.
Compound `CCN(CC)CCN(Cc1ccc(-c2ccc(C(F)(F)F)cc2)cc1)C(=O)Cn1c(CCc2cccc(F)c2F)c(C)c(=O)c2ccccc21` has an IC50 of 0.94 µM.
`CCc1cc2c(cc1CC)CC(NC[C@@H](O)c1ccc(O)c3[nH]c(=O)ccc13)C2` gave an IC50 of 1.12 µM.
Compound `Cc1cccc2[nH]c(-c3cccc(-c4cccc(CNCc5cccc(N)c5)c4)c3)nc12` has an IC50 of 0.54 µM.
`Oc1cc2c(cc1CN1CCN(Cc3ccccc3)CC1)CCC2` was tested, and the IC50 was 0.72 µM.
`OC1CCCN(Cc2ccc(-c3cccc(-c4nc5ccccc5[nH]4)c3)cc2)C1` (stereo not given) was tested, and the IC50 was 1.34 µM.
`Fc1ccc(Nc2ccnc3cc(-c4ccc(CNCCN5CCOCC5)o4)ccc23)c(Cl)c1` was tested, and the IC50 was 0.19 µM.
`CCc1c(C)c2ccc3c(c2oc1=O)CN(CCc1ccc(F)cc1)CO3` gave an IC50 of 1.23 µM.
`COc1ccc2ncc(F)c(CCN3CC[C@H](NCc4cc5c(s4)CCCN5)[C@H](O)C3)c2n1` showed an IC50 of 0.96 µM.
With `CN1CCC(N2CCN(Cc3cccc(-c4cccc(-c5nc6ccccc6[nH]5)c4)c3)CC2)CC1` the IC50 was 0.19 µM.
In the case of `CC=CC1CCNC(C(O)c2ccnc3ccc(OC)cc23)C1` (stereo not given), the IC50 is reported as 1.09 µM.
`O=C(Nc1cccc(-c2ccc(-c3nc4ccc(F)cc4[nH]3)cc2)c1)c1cccnc1` was tested, and the IC50 was 0.61 µM.
In the case of `COC(=O)c1ccc(CC(C)NCC(O)c2cccc(C(F)(F)F)c2)c(Cl)c1` (stereo not given), the IC50 is reported as 0.85 µM.
`COc1ccc(NC(=O)CCNc2cc(C)nc(NCCc3ccccc3)n2)cc1` gave an IC50 of 1.16 µM.
Work on `O=C(/C=C/c1ccc(Cl)c(Cl)c1)NCCCCCN1CCC(NC(=O)Nc2ccc(Cl)c(C(F)(F)F)c2)CC1` yielded an IC50 of 0.65 µM.
With `O=S(=O)(/C=C/c1ccccc1)N(Cc1ccc(-c2ccc(CNCCOc3ccccc3)cc2)cc1)CC1CCCCN1` (stereo not given) the IC50 was 0.74 µM.
Work on `N#Cc1ccc(CN2CCC(Oc3ccc(NC(=O)c4cccs4)cc3Cl)CC2)cc1` yielded an IC50 of 0.58 µM.
In the case of `COc1ccc(-n2ccnc2SCC(=O)Nc2cc(C(F)(F)F)ccc2Cl)c(OC)c1`, the IC50 is reported as 0.04 µM.
Work on `Cc1cc(NC(=O)Nc2cccc(Cl)c2Cl)c2ccccc2n1` yielded an IC50 of 0.74 µM.
With `CC(CCCCC(=O)Nc1ccc(C(F)(F)F)cc1)NCC(O)c1cccc(Cl)c1` (stereo not given) the IC50 was 0.28 µM.
Work on `COc1ccc(-c2nc(NC(=O)COc3ccc(C(C)=O)cc3)sc2C)cc1` yielded an IC50 of 0.71 µM.
